Measurements taken from patent publication US8455546B2, “Medicament having promoting action on hepatocyte proliferation” (Josai University Educational Corporation, priority 2007, dated 2013).
Like-named read-outs stand apart in the source and are kept apart here.

Legend:
[1] = system: primarily cultured rat hepatocytes; assay: Influence on cell density-dependent proliferation of primarily cultured rat hepatocytes; format: cell-based; details: cell densities 1-10×10^4 cells/cm^2; NIK-333 10^−9, trans 10^−7, GGP 10^−6 mol/L; four hours; FIG. 2
Source text: Hepatocytes isolated by the same method as that of Example 1 were inoculated at cell densities of 1, 2, 3.3, 5, 7, and 10×10^4 cells/cm^2. NIK-333 (10^−9 mol/L), trans (10^−7 mol/L), cis (10^−6 mol/L), GG (10^−7 mol/L), and GGP (10^−6 mol/L) were each added to the hepatocytes pre-cultured in the same manner as that of Example 1.

[2] = system: primarily cultured rat hepatocytes; assay: Effect of promoting proliferation of primarily cultured rat hepatocytes (number of nuclei); details: FIG. 1; for effect of promoting proliferation of primarily cultured rat hepatocytes (number of nuclei): 10^−11 to 10^−7 (and 10^−8 as printed) mol/L, four hours after addition, 3.3×10^4 cells/cm^2, vs solvent control
Procedure: (§1) Wistar male rats (weight: 200 to 205 g) were used, and hepatocytes were isolated by the in situ collagenase perfusion technique according to the method of Seglen et al. (Methods. Cell Biol., 13, pp. 29-83, 1975). The isolated hepatocytes were suspended in the Williams' medium E (containing 0.1 μg/mL aprotinin, 100 U/mL of penicillin G, 0.1 mg/mL of streptomycin, and 0.1 nmol/L of dexamethasone) containing 5% bovine neonate serum 3 times for washing, and then inoculated on a collagen coated culture dish (35 mm Φ) at a cell density of 3.3×10^4 cells/cm^2. The cells were adhered to the culture dish by culturing them at 37° C. for 3 hours in the presence of 5% CO2 to prepare a primarily cultured hepatocyte cell line. Survival rate of the isolated hepatocytes was obtained by the trypan blue exclusion method, and those showing a survival rate not lower than 93% were used for the following experiments.
(§2) Four hours after the addition of the agents, number of nuclei was measured as follows. The hepatocytes were washed with PBS, and then added with 0.25 mL of a 0.1 mol/L citric acid solution containing 0.1% Triton X-100. The cells were incubated at 37° C. for 30 minutes to solubilize the cell membranes and thereby obtain naked nuclei. The same volume of a PBS solution containing 0.3% trypan blue was further added, and number of the stained nuclei was measured with a hemacytometer.

[3] = system: cell lines derived from human hepatoma (HuH-7, JHH-7, HLF, Hep G2); assay: Influence on proliferation of cell lines derived from human hepatoma (WST-1 live cell count); format: cell-based; details: 10^−11 to 10^−7 mol/L, cultured overnight, FIG. 3
Procedure: The cells were inoculated on a 96-well plate at a cell density of 1×10^4 cells/mL, and cultured overnight at 37° C. in the presence of 5% CO2. […] The cells were cultured overnight at 37° C. in the presence of 5% CO2, and live cell count was measured. The live cell count was measured by using Cell Counting Kit (Wako Pure Chemical Industries). […] Absorbance was measured for each well at a measurement wavelength of 450 nm and a reference wavelength of 655 nm using a microplate reader.

[4] = system: 70% partially hepatectomized rat (PH rat); assay: Liver regeneration in 70% partially hepatectomized rat (PH rat); format: in vivo; details: 0.4 mg/kg/day p.o.
Procedure: Hepatocyte proliferation promoting effect of NIK-333 was examined by using a 70% partially hepatectomized rat (partial hepatectomy: PH rat) as an in vivo experiment system.
Wistar male rats (weight: 130 to 170 g) were subjected to 70% partial hepatectomy according to the method of Higgins G. M. et al. (Arch. Pathol., 12, pp. 186-202, 1931) to prepare PH rats. NIK-333 (solvent was soybean oil, 0.4 mg/kg/day) was orally administered to these PH rats once per day, the administration was repeated and continued for 1 to 14 days, and reaction was observed over time. The model animals fed for 1 to 14 days after the hepatectomy were subjected to abdominal section under diethyl ether anesthesia, and the remaining livers were extracted. The remaining livers were separated into normal hepatic tissues and necrotizing hepatic tissues (liver tissues which were not excisable by the partial hepatectomy and remained), and weight of each was measured (wet weight). The examination was performed for three animals for each group, and the results are indicated as average±standard error. Student t-test was performed between a solvent administered group (soybean oil, 4 mL/kg, p.o.) as a control group and the NIK-333 administered group. The significance level of the test was set at 5% and 1% on both sides.

[5] = system: primarily cultured mouse hepatocytes; details: cited from earlier work
[6] = system: rat partially hepatectomized model; details: rat partially hepatectomized model (Non-patent document 9); cited from earlier work
[7] = system: hepatoma; details: long-term administration over one year (Non-patent document 6); cited from earlier work
[8] = system: primarily cultured rat hepatocytes
Procedure: as §1, §2

[9] = system: mouse liver carcinogenic model; details: reported; cited from earlier work

SMILES | cell proliferation promoting action with increasing cell density [1] | effect of promoting proliferation of primarily cultured rat hepatocytes (number of nuclei) [2] | proliferation promotion action for human hepatoma cell strains (live cell count) [3] | recovery of liver weight compared with the control group ([4]; 1 to 14 days) | hyperproliferation exceeding the value of the Sham group ([4]; 14th day after PH) | increase rate of liver weight ([4]; 3 days after PH) | liver weight ([4]; 3 days after PH, g liver weight/100 g body weight) | effect on proliferation of primarily cultured mouse hepatocytes ([5]; at a concentration inducing apoptosis of hepatoma cells (Non-patent documents 7 and 8)) | DNA synthesis of regenerated liver [6] | recurrence of hepatoma after radical cure [7] | relative strength of the proliferation promoting effect among the tested agents ([2]; comparison of NIK-333, trans, cis, GG, GGP) | effect of promoting proliferation of primarily cultured rat hepatocytes (number of nuclei) [8] | proliferation of mouse hepatocytes ([5]; reported, no concentration given) | oncogenesis in mouse liver carcinogenic model [9]
CC(C)=CCC/C(C)=C/CC/C(C)=C/CC/C(C)=C/COP(=O)(O)OP(=O)(O)O.N.N.N [GGP, geranylgeranyl pyrophosphate ammonium salt, reference compound] | decreased with the increase of the cell density | significant effect of promoting proliferation | – | – | – | – | – | – | – | – | – | – | – | –
CC(C)=CCC/C(C)=C/CC/C(C)=C/C=C/C(C)=C/C(=O)O [NIK-333, (2E,4E,6E,10E)-3,7,11,15-tetramethyl-2,4,6,10,14-hexadecapentaenoic acid] | decreased with the increase of the cell density | significant effect of promoting proliferation | no proliferation promotion action | earlier recovery of liver weight | not observed | 85% | 3.0 g LW/BW | does not affect proliferation | delays DNA synthesis | significantly suppressed | strongest effect | – | – | –
CC1=C(/C=C/C(C)=C/C=C/C(C)=C/C(=O)O)C(C)(C)CCC1 [trans, all-trans-retinoic acid] | gave the cell proliferation promoting action even when the cell density was increased | – | – | – | – | – | – | – | – | – | – | significant effect of promoting proliferation | induce the proliferation of mouse hepatocytes | promote oncogenesis
